Source: ChEMBL document CHEMBL1155021, “Spheciosterol sulfates, PKCzeta inhibitors from a philippine sponge Spheciospongia sp” (J Nat Prod, 2008)
Counter-ions that a name gives are not always drawn.

The compounds below were run against T1, Protein kinase C zeta type (Homo sapiens, UniProt Q05513) (assay: Inhibition of PKCzeta by TR-FRET based LanthaScreen assay).
T1 sequence (Q05513 whole entry): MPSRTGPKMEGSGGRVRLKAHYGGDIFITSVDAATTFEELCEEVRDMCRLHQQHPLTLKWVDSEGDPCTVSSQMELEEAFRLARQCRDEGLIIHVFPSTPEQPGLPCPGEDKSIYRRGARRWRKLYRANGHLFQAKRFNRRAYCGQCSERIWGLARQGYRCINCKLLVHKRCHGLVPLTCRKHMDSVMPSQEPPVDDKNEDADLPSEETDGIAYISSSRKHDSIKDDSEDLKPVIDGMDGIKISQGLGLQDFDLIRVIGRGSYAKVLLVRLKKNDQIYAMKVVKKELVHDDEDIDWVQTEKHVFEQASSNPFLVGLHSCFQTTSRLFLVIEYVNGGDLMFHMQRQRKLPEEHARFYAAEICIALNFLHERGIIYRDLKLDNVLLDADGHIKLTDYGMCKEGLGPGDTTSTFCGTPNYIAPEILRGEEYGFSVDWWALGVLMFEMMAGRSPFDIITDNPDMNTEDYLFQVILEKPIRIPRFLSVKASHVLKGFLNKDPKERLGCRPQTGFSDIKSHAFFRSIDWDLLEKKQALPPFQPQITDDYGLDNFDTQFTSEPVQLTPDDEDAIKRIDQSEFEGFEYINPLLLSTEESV

Structure (SMILES) | IC50
C=C(C)C(CC[C@@H](C)[C@H]1CC[C@@]2(C)[C@@H]3C[C@H](OS(=O)(=O)O)[C@H]4[C@@H](O)[C@H](OS(=O)(=O)O)[C@@H](OS(=O)(=O)O)C[C@]4(C)C3=CC[C@]12C)C(C)C (some centres undefined) [SPHECIOSTEROL SULFATE B] | 530 nM
CC(C)C1(CC[C@@H](C)[C@H]2CC[C@@]3(C)[C@@H]4C[C@H](OS(=O)(=O)O)[C@H]5[C@@H](O)[C@H](OS(=O)(=O)O)[C@@H](OS(=O)(=O)O)C[C@]5(C)C4=CC[C@]23C)CC1C (some centres undefined) [TOPSENTIASTEROL SULFATE E] | 1210 nM
C=C(C)C(C)(C)C(C)CC[C@@H](C)[C@H]1CC[C@@]2(C)[C@@H]3C[C@H](OS(=O)(=O)O)[C@H]4[C@@H](O)[C@H](OS(=O)(=O)O)[C@@H](OS(=O)(=O)O)C[C@]4(C)C3=CC[C@]12C (some centres undefined) [SPHECIOSTEROL SULFATE C] | 110 nM
C=C(C)C(CC)CC[C@@H](C)[C@H]1CC[C@@]2(C)[C@@H]3C[C@H](OS(=O)(=O)O)[C@H]4[C@@H](O)[C@H](OS(=O)(=O)O)[C@@H](OS(=O)(=O)O)C[C@]4(C)C3=CC[C@]12C (some centres undefined) [SPHECIOSTEROL SULFATE A] | 1590 nM
